Measurements taken from patent US20090048301A1 (IMCLONE SYSTEMS INCORPORATED, priority 2003, published 2009).

Key:
[1] = system: A431, human epidermoid carcinoma cells; experiment: Cell cycle analysis (FACS), mitotic arrest in G2/M; assay type: cell-based; details: Homo sapiens, A-431, 24 h, read-out: FACS Assay: concentration required to achieve inhibition in FACS assay
Experimental: The cell cycle analysis was performed as follows. Cancer cells (A431, human epidennoid carcinoma cells) were maintained in culture in D-MEM media with 10% FBS and 1 mg/ml glutamate. Prior to experiment, cells were plated onto 6-well plates for a final density of 500,000 cells/well at the time of treatment. Cells were treated with the compounds of the invention at a concentration of about 0.01 to 1 μM final concentrations (final 0.1% DMSO) for 24 hours, then trypsinized, collected, rinsed in PBS (phosphate buffered saline), and fixed in 70% cold ethanol overnight at 4° C. The cells were then rinsed with PBS, resuspended in PBS with 0.2% Tween, RNAse was added (final 1 μg/ml), cells were incubated at 37° C. for 15 min, followed by addition of Propidium Iodide (final 50 μg/ml), and a 30 minute incubation at room temperature. DNA ploidy was analyzed using flow cytometers (Epics Excel, Beckman-Coulter, or Guava PCA-96, Guava Technologies) and mitotic arrest characterized by massive accumulation of cells in the G2/M phase of cell cycle.
Cancer cells (A431, human epidermoid cells) were maintained in culture in D-MEM media with 10% FBS and 1 mg/ml glutamate. Prior to experiment, cells are plated onto 6-well plates for a final density of 500,000 cells/well at the time of treatment. Cells were treated with compounds at 0.01-1 μM final concentrations (final […] DMS 0) for 24 hours, then trypsinized, collected, rinsed in PBS (phosphate buffered saline), and fixed in 70% cold ethanol overnight at 4° C. Cells were then rinsed with PBS, resuspended in PBS with 0.2% Tween, RNAse was added (final 1 μg/ml), cells were incubated at 37° C. for 15 min, followed by addition of Propidium Iodide (final 50 μg/ml), and a 30 minute incubation at room temperature. DNA ploidy was analyzed using cell sorters (Epics Excel, Beckman-Coulter, or Guava PCA-96, Guava Technologies) and mitotic arrest characterized by massive accumulation of cells in the G2/M phase of cell cycle.

bovine tubulin = experiment: In vitro tubulin polymerization assay (turbidity at 340 nm); assay type: biochemical; details: 10 μM compound, 30 minute data point, vs 1% DMSO control
Summary of the method: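 Bovine tubulin (97%, <3% MAPs) at 3 mg/ml final in G-PEM pH 7 with 1 mM GTP and 5% glycerol, added cold to compound wells at 37° C (1% DMSO final). A340 read each minute for 30 min; percent inhibition from 30-min point versus DMSO control.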

Row | SMILES | minimal effective concentration [1] | Tubulin Assay: percent inhibition at 10 μM based on 30 minute data (bovine tubulin)
1 | COc1ccc(CNc2ncccc2-c2nnc(Nc3ccc4c(c3)OCCO4)o2)cc1OC [Compound 165, {3-[5-(2,3-Dihydro-benzo[1,4]dioxin-6-ylamino)-[1,3,4]oxadiazol-2-yl]-pyridin-2-yl}-(3,4-dimethoxy-benzyl)-amine] | 0.1 µM | 86%
2 | COc1cccc(Nc2ncc(-c3ccccc3NCc3ccc4c(c3)OCO4)o2)c1 [Compound 249, (5-{2-[(Benzo[1,3]dioxol-5-ylmethyl)-amino]-phenyl}-oxazol-2-yl)-(3-methoxy-phenyl)-amine] | 1 µM | 60%
3 | COc1cccc(CNc2nnc(-c3cccnc3Nc3cc(OC)cc(OC)c3)[nH]2)c1 [Compound 58, (3,5-Dimethoxy-phenyl)-{3-[5-(3-methoxy-benzylamino)-4H-[1,2,4]triazol-3-yl]-pyridin-2-yl}-amine] | 0.1 µM | 100%
4 | c1cnc(NCC2COCCO2)c(-c2nnc(Nc3ccc4c(c3)OCCO4)o2)c1 (stereo not drawn) [Compound 203, {3-[5-(2,3-Dihydro-benzo[1,4]dioxin-6-ylamino)-[1,3,4]oxadiazol-2-yl]-pyridin-2-yl}-[1,4]dioxan-2-ylmethyl-amine] | 0.1 µM | 69%
5 | c1cnc(NCc2ccc3c(c2)OCO3)c(-c2nnc(Nc3ccc4c(c3)OCCO4)o2)c1 [Compound 195, Benzo[1,3]dioxol-5-ylmethyl-{3-[5-(2,3-dihydro-benzo[1,4]dioxin-6-ylamino)-[1,3,4]oxadiazol-2-yl]-pyridin-2-yl}-amine] | 0.01 µM | 73%
6 | COc1cccc(CNc2ncccc2-c2nnc(Nc3ccc4c(c3)OCCO4)o2)c1 [Compound 159, {3-[5-(2,3-Dihydro-benzo[1,4]dioxin-6-ylamino)-[1,3,4]oxadiazol-2-yl]-pyridin-2-yl}-(3-methoxy-benzyl)-amine] | 0.075 µM | 87%
7 | COc1cccc(CNc2ncccc2-c2nnc(Nc3ccc4c(c3)OCO4)o2)c1 [Compound 156, {3-[5-(Benzo[1,3]dioxol-5-ylamino)-[1,3,4]oxadiazol-2-yl]-pyridin-2-yl}-(3-methoxy-benzyl)-amine] | 1 µM | 64%
8 | c1ccc(-c2nnc(Nc3ccc4c(c3)OCCO4)o2)c(NCc2ccc3c(c2)OCO3)c1 [Compound 218, (5-{2-[(Benzo[1,3]dioxol-5-ylmethyl)-amino]-phenyl}-[1,3,4]oxadiazol-2-yl)-(2,3-dihydro-benzo[1,4]dioxin-6-yl)-amine] | 0.1 µM | 74%
9 | c1cncc(CNc2ncccc2-c2nnc(Nc3ccc4c(c3)OCCO4)o2)c1 [Compound 162, {3-[5-(2,3-Dihydro-benzo[1,4]dioxin-6-ylamino)-[1,3,4]oxadiazol-2-yl]-pyridin-2-yl}-pyridin-3-ylmethyl-amine] | 0.01 µM | 86%
10 | CS(=O)(=O)c1ccc(-c2nnc(-c3cccnc3NCC3CCCO3)[nH]2)cc1 (stereo not drawn) [Compound 106, {3-[5-(4-Methanesulfonyl-phenyl)-4H-[1,2,4]triazol-3-yl]-pyridin-2-yl}-(tetrahydro-furan-2-ylmethyl)-amine] | 0.1 µM | 79%
11 | CS(=O)(=O)c1ccc(-c2nnc(-c3cccnc3NCc3ccc(F)cc3)[nH]2)cc1 [Compound 108, (4-Fluoro-benzyl)-{3-[5-(4-methanesulfonyl-phenyl)-4H-[1,2,4]triazol-3-yl]-pyridin-2-yl}-amine] | 0.1 µM | 91%
12 | COc1cccc(Nc2nnc(-c3ccccc3NCc3ccc4[nH]ncc4c3)[nH]2)c1 [Compound 123, (5-{2-[(1H-Indazol-5-ylmethyl)-amino]-phenyl}-4H-[1,2,4]triazol-3-yl)-(3-methoxy-phenyl)-amine] | 1 µM | 75%
13 | COc1cccc(Nc2nnc(-c3cccnc3NCc3ccc4c(c3)OCCO4)[nH]2)c1 [Compound 35, (2,3-Dihydro-benzo[1,4]dioxin-6-ylmethyl)-{3-[5-(3-methoxy-phenylamino)-4H-[1,2,4]triazol-3-yl]-pyridin-2-yl}-amine] | – | 66%
14 | NS(=O)(=O)c1cccc(Nc2ncccc2-c2nnc(Nc3ccc4c(c3)OCCO4)o2)c1 [Compound 191, 3-{3-[5-(2,3-Dihydro-benzo[1,4]dioxin-6-ylamino)-[1,3,4]oxadiazol-2-yl]-pyridin-2-ylamino}-benzenesulfonamide] | – | 28%
15 | COc1cc(Nc2nnc(-c3cccnc3NCc3ccc(F)c(F)c3)o2)cc(OC)c1OC [Compound 167, (3,4-Difluoro-benzyl)-{3-[5-(3,4,5-trimethoxy-phenylamino)-[1,3,4]oxadiazol-2-yl]-pyridin-2-yl}-amine] | – | 99%
16 | c1cnc(NCc2ccc3c(c2)OCCO3)c(-c2nnc(-c3ccc4c(c3)OCO4)[nH]2)c1 [Compound 104, [3-(5-Benzo[1,3]dioxol-5-yl-4H-[1,2,4]triazol-3-yl)-pyridin-2-yl]-(2,3-dihydro-benzo[1,4]dioxin-6-ylmethyl)-amine] | – | 21%
17 | FC(F)(F)c1ccc(-c2nnc(Nc3ccc4c(c3)OCO4)[nH]2)c(NCc2cccnc2)c1 [Compound 125, Benzo[1,3]dioxol-5-yl-(5-{2-[(pyridin-3-ylmethyl)-amino]-4-trifluoromethyl-phenyl}-4H-[1,2,4]triazol-3-yl)-amine] | – | 96%
18 | COc1ccc(Nc2nnc(-c3ccccc3NCc3ccncc3)[nH]2)cc1 [Compound 116, (4-Methoxy-phenyl)-(5-{2-[(pyridin-4-ylmethyl)-amino]-phenyl}-4H-[1,2,4]triazol-3-yl)-amine] | – | 20%
19 | COc1cccc(Nc2nc(-c3cccnc3NCc3ccncc3)nn2C)c1 [Compound 69, {3-[5-(3-Methoxy-phenylamino)-1-methyl-1H-[1,2,4]triazol-3-yl]-pyridin-2-yl}-pyridin-4-ylmethyl-amine] | – | 29%
20 | COc1cccc(Nc2ncc(-c3ccccc3OCc3ccncc3)o2)c1 [Compound 256, (3-Methoxy-phenyl)-{5-[2-(pyridin-4-ylmethoxy)-phenyl]-oxazol-2-yl}-amine] | – | 50%
21 | COc1ccc(CNc2ncccc2-c2nnc(Nc3cc(OC)c(OC)c(OC)c3)o2)cc1 [Compound 188, (4-Methoxy-benzyl)-{3-[5-(3,4,5-trimethoxy-phenylamino)-[1,3,4]oxadiazol-2-yl]-pyridin-2-yl}-amine] | – | 56%
22 | COc1cccc(Nc2nnc(-c3cccnc3NCc3cc(OC)cc(OC)c3)[nH]2)c1 [Compound 23, (3,5-Dimethoxy-benzyl)-{3-[5-(3-methoxy-phenylamino)-4H-[1,2,4]triazol-3-yl]-pyridin-2-yl}-amine] | – | 22%
23 | CN1CCN(c2ccc(-c3nnc(Nc4ccc5c(c4)OCCO5)o3)c([N+](=O)[O-])c2)CC1 [Compound 236, (2,3-Dihydro-benzo[1,4]dioxin-6-yl)-{5-[4-(4-methyl-piperazin-1-yl)-2-nitro-phenyl]-[1,3,4]oxadiazol-2-yl}-amine] | – | 59%
24 | COc1cccc(-c2nnc(-c3cccnc3NCCc3c[nH]cn3)[nH]2)c1 [Compound 90, [2-(1H-Imidazol-4-yl)-ethyl]-{3-[5-(3-methoxy-phenyl)-4H-[1,2,4]triazol-3-yl]-pyridin-2-yl}-amine] | – | 25%
